Patent US20240300987A1, “TRAP1 INHIBITOR AND USE THEREOF” (SMARTIN BIO INC., priority 2021, published 2024)

What was measured:
[1] = molecular target: T1, human full-length TRAP1 protein (Homo sapiens, UniProt Q12931); assay: Fluorescence polarization (FP) analysis using SB-TM2 probe (client-binding site); conditions: for IC50: FP analysis using SB-TM2; for Activity compared to that of SMX: TRAP1 binding, relative to SMX of the same table
T1 construct: containing human full-length TRAP1 protein (400 nM); hexahistidine tag followed by TEV protease cleavage site (N, cleaved yes); made in house; host or cells: E. coli BL21 (DE3)
T1 sequence (Q12931 60-704): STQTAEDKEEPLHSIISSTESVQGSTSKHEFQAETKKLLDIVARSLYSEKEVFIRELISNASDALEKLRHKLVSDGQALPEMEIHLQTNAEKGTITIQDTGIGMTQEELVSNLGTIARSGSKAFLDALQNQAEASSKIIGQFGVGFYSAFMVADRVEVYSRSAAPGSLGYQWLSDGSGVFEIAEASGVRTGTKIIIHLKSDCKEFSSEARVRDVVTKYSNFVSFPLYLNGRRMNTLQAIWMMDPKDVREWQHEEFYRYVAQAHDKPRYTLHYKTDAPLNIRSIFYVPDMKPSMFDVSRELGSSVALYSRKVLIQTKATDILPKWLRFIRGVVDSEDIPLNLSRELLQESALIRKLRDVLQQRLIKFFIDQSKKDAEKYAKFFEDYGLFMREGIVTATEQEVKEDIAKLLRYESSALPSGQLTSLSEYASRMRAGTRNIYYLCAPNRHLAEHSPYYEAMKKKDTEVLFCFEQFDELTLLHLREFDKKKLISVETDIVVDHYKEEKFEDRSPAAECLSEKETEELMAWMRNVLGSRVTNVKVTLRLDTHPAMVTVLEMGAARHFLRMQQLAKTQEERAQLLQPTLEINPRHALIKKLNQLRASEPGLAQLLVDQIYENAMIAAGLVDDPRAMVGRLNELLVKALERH
Procedure: The substance to be analyzed (at a final volume of 100 μL) was added to FP buffer ([…], 2.7 mM KCl, 4.3 mM Na2HPO4, 1.4 mM KH2PO4 (pH 7.3), 1 mM DTT, 2 mM MgCl2, and 0.1 mg/mL BSA) containing human full-length TRAP1 protein (400 nM) and SB-TM2 probe (100 nM) and then reacted at room temperature for 1 hour (96-well plate). Using a SYNERGY NEO microplate reader, FP was measured at an excitation wavelength set to 440 nm and an emission wavelength set to 500 nm.

HIF1α = assay: Drug activity assay using MIO-M1 HRE/GFP cell line under hypoxia; type: cell-based; conditions: for IC50: HIF1α inhibitory activity in MIO-M1 cells, 1% O2 24 hours; for Activity compared to that of SMX: HIF1α inhibition, relative to SMX of the same table
Procedure: After transfection (jetPRIME kit) of MIO-M1 Müller cells with 5HRE/GFP plasmid (Addgene, #46926), the cells transfected with the plasmid were selected using 1 mg/ml of G418 (Neomycin), a selectable marker. A stable cell line was constructed by selecting cells, growing in a colony form, from single cells. The prepared MIO-M1-HRE/GFP stable cell line was dispensed into a 96-well plate and treated with drugs at different concentrations the next day. After being exposed to a hypoxic environment (1% O2) for 24 hours, the GFP (Ex/Em: 488/507) fluorescence signal was measured using a SYNERGY NEO microplate reader (BioTek Instrument). The relative fluorescence value was calculated on the basis of 100% of the negative control group.

TRAP1 = molecular target: T2, TRAP1 (Homo sapiens, UniProt Q12931); assay: ATPase activity assay (PiColorLock Gold Phosphate Detection Kit); type: biochemical; set-up: hexahistidine tag followed by TEV protease cleavage site (N, cleaved yes); made in house; host or cells: E. coli BL21 (DE3); conditions: result in words
T2 sequence (Q12931 60-704): T1 sequence (Q12931 60-704)
Procedure: The ATPase activity of TRAP1 was measured using the PiColorLock Gold Phosphate Detection Kit (Abcam). Then, 0.5 µM TRAP1 (wild-type or mutation) was pre-incubated along with inhibitors at various concentrations for 30 minutes and then incubated with 0.2 mM ATP at 37° C. for 3 hours in ATPase activity assay buffer containing 50 mM Tris-HCl, 20 mM KCl, and 6 mM MgCl (pH 7.4). Next, 20 µL of a mixture of a PiColorLock Gold reagent and an accelerator (100:1) was added to each sample (100 μL). After 5 minutes of incubation, 10 μL of a stabilizer was added to stop color development. Absorbance was measured at 620 nm using a microplate reader (Synergy NEO, BioTek). The background signal was normalized by subtracting the absorbance of unreacted samples.

[2] = MIO-M1, 24 h, Table 6, alkyl-TPPs
[3] = Table 3, other synthetic compounds
[4] = MIO-M1, 24 h, Table 8, other synthetic compounds
[5] = Table 2, antioxidant-TPP conjugates
[6] = Table 4, other synthetic compounds
[7] = MIO-M1, 24 h, Table 7, TPP-antioxidant conjugates
[8] = MIO-M1, 24 h, Table 9, other synthetic compounds

Q: How did the IC50 ([1]; Table 1, alkyl-TPPs) turn out when CCCCCCCC[P+](c1ccccc1)(c1ccccc1)c1ccccc1 [TPP-8, Octyltriphenylphosphonium] was run?
A: 2570 ± 258 nM

Q: And the “Activity compared to that of SMX” value ([1]; Table 1)?
A: 0.24

Q: What about the “TRAP1 binding capacity (competitive binding with SB-TM2, CBS of TRAP1)” value (from here on “TRAP1 binding capacity”) ([1]; result in words) of the same compound?
A: competitive binding with SB-TM2 was confirmed to be enabled

Q: And the “TRAP1 binding capacity” value ([1]; result in words, listed as octyl-TPP)?
A: competitive binding to SB-TM2 is confirmed to be enabled

Q: And the IC50 (HIF1α; [2])?
A: 643 ± 258 nM

Q: What about the “Activity compared to that of SMX” value (HIF1α; Table 6) of the same compound?
A: 0.73

Q: Which results are given for COc1c(O)c(C)c(CCCCCCCCCC[P+](c2ccccc2)(c2ccccc2)c2ccccc2)c(Br)c1OC [SB-U009, (10-(2-Bromo-5-hydroxy-3,4-dimethoxy-6-methylphenyl)decyl)triphenylphosphonium]?
A: IC50 [1, 3]: 909 ± 136 nM; Activity compared to that of SMX ([1]; Table 3): 0.8701; IC50 (HIF1α; [4]): 191 ± 23.6 nM; Activity compared to that of SMX (HIF1α; Table 8): 2.69

Q: With CCCCCCCCCCCC[P+](c1ccccc1)(c1ccccc1)c1ccccc1 [TPP-12, Dodecyltriphenylphosphonium] as the compound, how does the IC50 ([1]; Table 1, alkyl-TPPs) read?
A: 377 ± 35.4 nM

Q: What about the “Activity compared to that of SMX” value ([1]; Table 1) of the same compound?
A: 1.65

Q: What about the “binding capacity compared to that of SMX (MitoQ)” value ([1]; result in words) of the same compound?
A: superior to that of SMX

Q: And the IC50 (HIF1α; [2])?
A: 111 ± 35.4 nM

Q: And the “Activity compared to that of SMX” value (HIF1α; Table 6)?
A: 4.21

Q: Which IC50 ([1]; Table 1, alkyl-TPPs) does the source give for COC1=C(OC)C(=O)C(CCCCCCCCCC[P+](c2ccccc2)(c2ccccc2)c2ccccc2)=C(C)C1=O [SMX, (10-(4,5-Dimethoxy-2-methyl-3,6-dioxocyclohexadien-1-yl)decyl)triphenylphosphonium, reference compound] here?
A: 623 ± 37.5 nM

Q: What about the “Activity compared to that of SMX” value ([1]; Table 1) of the same compound?
A: 1

Q: And the IC50 [1, 5]?
A: 824 ± 51.2 nM

Q: What about the “Activity compared to that of SMX” value ([1]; Table 2) of the same compound?
A: 1

Q: And the IC50 [1, 3]?
A: 791 ± 51.2 nM

Q: What about the “Activity compared to that of SMX” value ([1]; Table 3) of the same compound?
A: 1

Q: And the IC50 [1, 6]?
A: 406 ± 38.9 nM

Q: And the “Activity compared to that of SMX” value ([1]; Table 4)?
A: 1

Q: What about the IC50 (HIF1α; [2]) of the same compound?
A: 468 ± 15.1 nM

Q: And the IC50 (HIF1α; [7])?
A: 327 ± 22.9 nM

Q: What about the IC50 (HIF1α; [4]) of the same compound?
A: 514 ± 55.2 nM

Q: And the IC50 (HIF1α; [8])?
A: 279 ± 17 nM

Q: What about the “Activity compared to that of SMX” value (HIF1α; Table 6) of the same compound?
A: 1

Q: What about the “Activity compared to that of SMX” value (HIF1α; Table 7) of the same compound?
A: 1

Q: And the “Activity compared to that of SMX” value (HIF1α; Table 8)?
A: 1

Q: What about the “Activity compared to that of SMX” value (HIF1α; Table 9) of the same compound?
A: 1

Q: With COc1c(C)c(CCCCCCCCCC[P+](c2ccccc2)(c2ccccc2)c2ccccc2)c(Br)c(OC)c1OC [SB-U012, (10-(2-Bromo-3,4,5-trimethoxy-6-methylphenyl)decyl)triphenylphosphonium] as the compound, how does the IC50 [1, 3] read?
A: 601 ± 90.6 nM

Q: What about the “Activity compared to that of SMX” value ([1]; Table 3) of the same compound?
A: 1.315

Q: And the IC50 (HIF1α; [4])?
A: 177 ± 8.8 nM

Q: And the “Activity compared to that of SMX” value (HIF1α; Table 8)?
A: 2.90

Q: Which “TRAP1 ATPase activity with increasing concentration” value (TRAP1) does the source give for CC(C)NCCCn1c(Sc2cc3c(cc2I)OCO3)nc2c(N)ncnc21 [PU-H71, reference compound] here?
A: ATPase activity decreased with the increasing concentration

Q: For CC1(C)CC(NC(=O)C[P+](c2ccccc2)(c2ccccc2)c2ccccc2)CC(C)(C)N1[O] [Mito-TEMPO, reference compound], which “TRAP1 binding capacity” value ([1]; result in words) is on record?
A: do not exhibit TRAP1 binding capacity

Q: What does the source list for c1ccc(CCCCCCCCCC[P+](c2ccccc2)(c2ccccc2)c2ccccc2)cc1 [SB-B001, Triphenyl(10-phenyldecyl)phosphonium]?
A: IC50 [1, 6]: 2970 ± 1050 nM; Activity compared to that of SMX ([1]; Table 4): 0.14; IC50 (HIF1α; [8]): 94.7 ± 13.2 nM; Activity compared to that of SMX (HIF1α; Table 9): 2.95

Q: For COc1c(C)c(CCCCCCCCCC[P+](c2ccccc2)(c2ccccc2)c2ccccc2)c(OC)c(OC)c1OC [SB-U014, Triphenyl(10-(2,3,4,5-tetramethoxy-6-methylphenyl)decyl)phosphonium], which IC50 [1, 6] is on record?
A: 805 ± 99.4 nM

Q: What about the IC50 (HIF1α; [8]) of the same compound?
A: 69.4 ± 3.1 nM

Q: What about the “Activity compared to that of SMX” value (HIF1α; Table 9) of the same compound?
A: 4.02

Q: What does the source list for CCCCCCCCCC[P+](c1ccccc1)(c1ccccc1)c1ccccc1 [TPP-10, Decyltriphenylphosphonium]?
A: IC50 ([1]; Table 1, alkyl-TPPs): 693 ± 57.8 nM; Activity compared to that of SMX ([1]; Table 1): 0.90; IC50 (HIF1α; [2]): 314 ± 57.8 nM; Activity compared to that of SMX (HIF1α; Table 6): 1.49

Q: With c1ccc([P+](CCCCCCCCCCC2CCCCC2)(c2ccccc2)c2ccccc2)cc1 [SB-B002, (10-Cyclohexyldecyl)triphenylphosphonium chloride] as the compound, how does the IC50 (HIF1α; [8]) read?
A: 22.3 ± 1 nM

Q: And the “Activity compared to that of SMX” value (HIF1α; Table 9)?
A: 12.51

Q: What does the source list for COc1c(Br)c(C)c(CCCCCCCCCC[P+](c2ccccc2)(c2ccccc2)c2ccccc2)c(OC)c1OC [SB-U011, (10-(3-Bromo-4,5,6-trimethoxy-2-methylphenyl)decyl)triphenylphosphonium]?
A: IC50 [1, 3]: 684 ± 72.9 nM; Activity compared to that of SMX ([1]; Table 3): 1.156; IC50 (HIF1α; Table 8, other synthetic compounds): 85.3 ± 8.8 nM; Activity compared to that of SMX (HIF1α; Table 8): 6.02; TRAP1 ATPase activity with increasing concentration (TRAP1): did not show a tendency that the ATPase activity decreased in a concentration-dependent manner

Q: With CCCCCC[P+](c1ccccc1)(c1ccccc1)c1ccccc1.[Br-] [TPP-6, hexyltriphenylphosphonium bromide, reference compound] as the compound, how does the IC50 ([1]; Table 1, alkyl-TPPs) read?
A: 18800 ± 5390 nM

Q: What about the “Activity compared to that of SMX” value ([1]; Table 1) of the same compound?
A: 0.03

Q: And the IC50 (HIF1α; [2])?
A: 1430 nM

Q: And the “Activity compared to that of SMX” value (HIF1α; Table 6)?
A: 0.33

Q: With CC1=C(CCCCCCCCCC[P+](c2ccccc2)(c2ccccc2)c2ccccc2)C(=O)c2ccccc2C1=O [SB-K001, (10-(3-Methyl-1,4-dioxo-1,4-dihydronaphthalen-2-yl)decyl)triphenylphosphonium] as the compound, how does the IC50 [1, 6] read?
A: 166 ± 23 nM

Q: What about the “Activity compared to that of SMX” value ([1]; Table 4) of the same compound?
A: 2.45

Q: What about the IC50 (HIF1α; [8]) of the same compound?
A: 55.5 ± 3.3 nM

Q: What about the “Activity compared to that of SMX” value (HIF1α; Table 9) of the same compound?
A: 5.03

Q: With COc1c(Br)c(C)c(CCCCCCCCCC[P+](c2ccccc2)(c2ccccc2)c2ccccc2)c(OC)c1OC [SB-U005, (10-(3-Bromo-4,5,6-trimethoxy-2-methylphenyl)decyl)triphenylphosphonium] as the compound, how does the IC50 [1, 3] read?
A: 385 ± 83.5 nM

Q: And the IC50 (HIF1α; [4])?
A: 131 ± 9.1 nM

Q: And the “Activity compared to that of SMX” value (HIF1α; Table 8)?
A: 3.92

Q: With CC1=C(C)C(=O)C(CCCCCCCCCC[P+](c2ccccc2)(c2ccccc2)c2ccccc2)=CC1=O [SkQ1, (10-(4,5-Dimethyl-3,6-dioxocyclohexa-1,4-diene-1-yl)decyl)triphenylphosphonium, reference compound] as the compound, how does the IC50 [1, 5] read?
A: 696 ± 55.4 nM

Q: And the IC50 (HIF1α; [7])?
A: 183 ± 9.1 nM

Q: What about the “Activity compared to that of SMX” value (HIF1α; Table 7) of the same compound?
A: 1.79
